“And” between values parts separate entries of the source, which are not always exact repeats. Equal entries are not always repeated. Structures can show the parent of a compound that is named as a salt.
Columns and labels:
μ-receptor = target: T1, μ-receptor (Homo sapiens, UniProt P35372); assay: μ-Receptor binding assay ([3H]diprenorphine, cell membrane preparation); conditions: [3H]diprenorphine 0.13 nM, 25° C., 90 minutes; Ki calculated from IC50 and Kd; read-out: Affinity for μ-receptor Ki
T1 construct: purchased Receptor Biology
Procedure: A human μ-receptor-expressing cell membrane preparation (Receptor Biology) was prepared so that it contained 8.5 μg/mL of the membrane protein in a Tris buffer [50 mM Tris-HCl (pH 7.8), 5 MM MgCl2, 1 mM EGTA, 0.1% BSA]. To this, [^3H]diprenorphine (diluted at the final concentration of 0.13 nM with the Tris buffer) and a tested substance were added and the mixture was incubated at 25° C. for 90 minutes. Using a cell harvester and a washing solution [50 mM Tris-HCl (pH 7.8), 4° C.], the membrane was recovered onto a GF/B filter which had been pretreated with 0.3% PEI, which was then washed further 4 times. The filter was transferred to a vial, to which a scintillator was added, and the radioactivity was measured using a liquid scintillation counter. A non-specific binding was regarded as a binding in the presence of 100 μM naloxone, and a specific binding was obtained by subtracting the non-specific binding from the total binding. From a ratio of binding inhibition in the presence of the tested substance, and IC50 value was obtained, and was then used together with the Kd value for [^3H]diprenorphine to calculate the Ki value of the tested substance.

nociceptin receptor = target: T2, nociceptin receptor (Homo sapiens, UniProt P41146); assay: Nociceptin receptor binding assay ([3H]nociceptin, cell membrane suspension); conditions: [3H]nociceptin 0.08 nM, 25° C., 60 minutes; Ki calculated from IC50 and Kd; read-out: Affinity for nociceptin receptors Ki
T2 construct: expressed in transfected cells
Procedure: A cell membrane suspension obtained from a human nociceptin-expressing cell was prepared so that it contained 5 to 10 μg/mL of the membrane protein in a Tris buffer [50 mM Tris-HCl (pH 7.8), 5 mM MgCl2, 1 mM EGTA, 0.1% BSA]. To this, [^3H]nociceptin (diluted at the final concentration of 0.08 nM with the Tris buffer) and a tested substance were added and the mixture was incubated at 25° C. for 60 minutes. Using a cell harvester and a washing solution [50 mM Tris-HCl (pH 7.8), 4° C.], the membrane was recovered onto a GF/B filter which had been pretreated with 0.3% PEI, which was then washed further 4 times. The filter was transferred to a vial, to which a scintillator was added, and the radioactivity was measured using a liquid scintillation counter. Noted that a non-specific binding was regarded as a binding in the presence of 10 μM nociceptin, and a specific binding was obtained by subtracting the non-specific binding from the total binding. From a ratio of binding inhibition in the presence of the tested substance, an IC50 value was obtained, and was then used together with the Kd value for [^3H]nociceptin to calculate the K1 value for the tested substance.

[1] = tested on: acetic acid-induced writhing reactions in mice; assay: Acetic acid-writhing test in mice; type: in vivo, mice (Slc:ddY); conditions: 10 nmol/animal intrathecal, male mice, counted over 20 minutes after 0.6% acetic acid intraperitoneally; for Number of writhings (individual animal): animal No. 1-10; for Number of writhings (Mean): mean of 10 animals (saline control 17.67)
Procedure: Ten male mice (Slc:ddY, 4 to 5 weeks old) were assigned to each group. The dorsal skin of each mouse was incised laterally in a length of approximately 3 cm, and after acclimatizing for 30 minutes or longer a 27G needle fitted on the tip of a silicone tube connected to a microsyringe was inserted into a position around L3-L4, through which 5 μL of a drug solution was infused, whereby effecting an administration into a spinal subarachnoid cavity. The tested substance was dissolved in physiological saline, and administered at 10 nmol/animal. In a control group, physiological saline was administered similarly.
A mouse which had been fasting since the day before the experiment was placed in an observation cage (20×20×15 cm), where it was allowed to be acclimatized over a period of 30 minutes or longer, and then received 100 μL per 10 g body weight of a 0.6% acetic acid solution intraperitoneally via a 27G needle. The number of the writhing reactions with stretching the abdomen was counted over 20 minutes after the administration of acetic acid, and the obtained data were represented as means±standard errors. Only the screening data were subjected to the test for a significant difference by a t test between the two groups of the control and a treatment group or by one-way analysis of variance among multiple groups followed by Dunnett's multiple comparison test, and the significant difference was regarded to be present when p<0.05.

T1 sequence (P35372 whole entry): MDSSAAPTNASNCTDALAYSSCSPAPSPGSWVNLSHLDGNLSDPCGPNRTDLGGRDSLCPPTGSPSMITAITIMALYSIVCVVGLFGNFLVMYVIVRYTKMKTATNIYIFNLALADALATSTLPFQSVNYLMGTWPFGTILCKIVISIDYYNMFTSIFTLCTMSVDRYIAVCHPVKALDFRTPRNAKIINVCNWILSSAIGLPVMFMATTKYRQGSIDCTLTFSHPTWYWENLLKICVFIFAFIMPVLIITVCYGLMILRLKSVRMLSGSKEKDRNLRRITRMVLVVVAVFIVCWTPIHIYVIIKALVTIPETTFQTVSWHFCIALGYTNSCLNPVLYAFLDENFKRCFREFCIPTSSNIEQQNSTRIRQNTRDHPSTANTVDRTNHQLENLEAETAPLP
T2 sequence (P41146 whole entry): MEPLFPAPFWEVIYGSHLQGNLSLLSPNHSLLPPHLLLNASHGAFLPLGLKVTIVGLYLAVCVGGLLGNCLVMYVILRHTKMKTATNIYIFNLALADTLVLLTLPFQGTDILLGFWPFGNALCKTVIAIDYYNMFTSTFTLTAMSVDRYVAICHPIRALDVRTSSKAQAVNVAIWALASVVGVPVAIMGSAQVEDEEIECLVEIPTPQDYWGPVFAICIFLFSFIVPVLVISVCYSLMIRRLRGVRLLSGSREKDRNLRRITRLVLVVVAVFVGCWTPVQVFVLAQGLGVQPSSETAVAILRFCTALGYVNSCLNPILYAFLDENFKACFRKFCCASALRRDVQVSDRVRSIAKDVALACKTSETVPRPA

COc1ccc2nc(C=Cc3ccccn3)nc(NCCCCCCNC(=N)N)c2c1.Cl.Cl [Example 23, N-Amidino-N′-{6-methoxy-2-[2-(2-pyridyl)ethenyl]quinazolin-4-yl}-1,6-hexanediamine Dihydrochloride]
Ki (μ-receptor): 19 nM | Ki (nociceptin receptor): 3 nM | Number of writhings (individual animal) ([1]; listed as Ex. 23, Dihydrochloride): 14 and 0 (5×) and 6 and 18 and 28 and 3 | Number of writhings (Mean) [1]: 6.90

COc1ccc2nc(C=Cc3ccccn3)nc(NC(C)CCCCCNC(=N)N)c2c1.Cl.Cl.Cl (stereo not drawn) [Example 48, N-Amidino-6-{6-methoxy-2-[2-(2-pyridyl)ethenyl]quinazolin-4-yl}aminoheptylamine Trihydrochloride]
Number of writhings (individual animal) ([1]; listed as Ex. 48, Trihydrochloride): 7 and 0 (4×) and 6 and 16 and 1 and 14 and 12 | Number of writhings (Mean) [1]: 5.60

COc1ccc2nc(C=Cc3ccc(Cl)cc3)nc(NCCCCCCNC(=N)N)c2c1 [Example 16, N-Amidino-N′-[2-(4-chlorostyryl)-6-methoxyquinazolin-4-yl]-1,6-hexanediamine Dihydrochloride]
Ki (μ-receptor): 38 nM | Ki (nociceptin receptor): 9 nM

Cc1ccc2nc(C=Cc3ccccn3)nc(NCCCCCCNC(=N)N)c2c1.Cl.Cl.Cl [Example 46, N-Amidino-N′-{6-methyl-2-[2-(2-pyridyl)ethenyl]quinazolin-4-yl}-1,6-hexanediamine Trihydrochloride]
Ki (μ-receptor): 23 nM | Ki (nociceptin receptor): 3 nM | Number of writhings (individual animal) ([1]; listed as Ex. 46, Trihydrochloride): 0 (4×) and 13 and 6 and 3 and 10 and 4 and 9 | Number of writhings (Mean) [1]: 4.50

COc1ccc2nc(C=Cc3ccccn3)nc(N[C@H]3CC[C@@H](CNC(=N)N)C[C@H]3C)c2c1 (relative stereo) [Example 68, cis-4-Guanidinomethyl-cis-2-methyl-N-{6-methoxy-2-[2-(2-pyridyl)ethenyl]quinazolin-4-yl}cyclohexylamine Trihydrochloride]
Ki (μ-receptor): 32 nM | Ki (nociceptin receptor): 3 nM

cis-4-Guanidinomethyl-N-{2-[2-(2-pyridyl)ethenyl]-6-methoxyquinazolin-4-yl}cyclohexylamine Trihydrochloride [Example 4]
Ki (μ-receptor): 63 nM | Ki (nociceptin receptor): 8 nM | Number of writhings (individual animal) ([1]; listed as Ex. 4, Trihydrochloride): 18 and 12 (2×) and 10 and 0 (2×) and 2 and 11 and 1 and 13 | Number of writhings (Mean) [1]: 7.90

COc1ccc2nc(C=Cc3ccccn3)nc(NCCN(CCc3ccccc3)C(=N)N)c2c1 [Example 66, N-Amidino-2-{6-methoxy-2-[2-(2-pyridyl)ethenyl]quinazolin-4-yl}aminoethyl-phenylethylamine Trihydrochloride]
Ki (μ-receptor): 22 nM | Ki (nociceptin receptor): 4 nM

COc1ccc2nc(C=Cc3ccccn3)nc(NC[C@H]3CC[C@@H](CNC(=N)N)CC3)c2c1 [Example 44, cis-N-Amidino-N′-{6-methoxy-2-[2-(2-pyridyl)ethenyl]quinazolin-4-yl}-1,4-bis(aminomethyl)cyclohexane Trihydrochloride]
Ki (μ-receptor): 30 nM | Ki (nociceptin receptor): 7 nM

COc1ccc2nc(NC(=O)c3ccc(Cl)cc3)nc(N[C@H]3CCCC[C@H]3NC(=N)N)c2c1 (relative stereo) [Example 2, cis-N-Amidino-2-[2-(4-chlorobenzoylamino)-6-methoxyquinazolin-4-yl]aminocyclohexylamine Dihydrochloride]
Ki (μ-receptor): 193 nM | Ki (nociceptin receptor): 6 nM
